In ChEMBL document CHEMBL5042471, “Development and Application of Subtype-Selective Fluorescent Antagonists for the Study of the Human Adenosine A1 Receptor in Living Cells” (J Med Chem, 2021):
Calls of active or inactive are those of the source. No cut-off for these calls is given here.

Tests used:
Adenosine receptor A1 [1] = molecular target: T1, Adenosine receptor A1 (Homo sapiens, UniProt P30542); assay: Displacement of [3H]DPCPX from human A1 adenosine receptor expressed in Flp-In-CHO cells by radioligand competitive binding assay; format: cell-based
T1 sequence (P30542 whole entry): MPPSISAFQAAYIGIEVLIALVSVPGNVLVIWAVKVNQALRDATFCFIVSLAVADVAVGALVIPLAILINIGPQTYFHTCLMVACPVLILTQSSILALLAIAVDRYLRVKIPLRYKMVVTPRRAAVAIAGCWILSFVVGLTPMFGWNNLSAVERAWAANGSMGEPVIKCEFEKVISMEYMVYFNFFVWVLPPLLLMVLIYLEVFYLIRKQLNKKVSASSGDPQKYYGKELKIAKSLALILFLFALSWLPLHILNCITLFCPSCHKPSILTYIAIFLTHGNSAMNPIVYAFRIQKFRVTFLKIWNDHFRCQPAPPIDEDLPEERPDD

[2] = molecular target: T2, Adenosine receptor A1 (Homo sapiens) (UniProt P30542); assay: Binding affinity to SNAP-tagged-human A1 adenosine receptor expressed in HEK293 cells at 10 nM after 30 mins in presence of SLV320 by confocal microscopy method; format: cell-based
T2 sequence (whole entry): T1 sequence (P30542 whole entry)

Adenosine receptor A1 [3] = molecular target: T1, Adenosine receptor A1; assay: Binding affinity to NLuc human A1 adenosine receptor expressed in HEK293-A cells in presence of 1 uM SLV320 by NanoBRET binding assay; format: cell-based
[4] = molecular target: T2, Adenosine receptor A1 (Homo sapiens); assay: Binding affinity to NLuc human A1 adenosine receptor expressed in HEK293-A cells assessed as maximal binding capacity in presence of 1 uM SLV320 by NanoBRET binding assay; format: cell-based; settings: filed as antagonist
Adenosine receptor A2a [5] = molecular target: T3, Adenosine receptor A2a (Homo sapiens, UniProt P29274); assay: Binding affinity to NLuc human A2A adenosine receptor expressed in HEK293-A cells in presence of 1 uM ZM241385 by NanoBRET binding assay; format: cell-based
T3 sequence (P29274 whole entry): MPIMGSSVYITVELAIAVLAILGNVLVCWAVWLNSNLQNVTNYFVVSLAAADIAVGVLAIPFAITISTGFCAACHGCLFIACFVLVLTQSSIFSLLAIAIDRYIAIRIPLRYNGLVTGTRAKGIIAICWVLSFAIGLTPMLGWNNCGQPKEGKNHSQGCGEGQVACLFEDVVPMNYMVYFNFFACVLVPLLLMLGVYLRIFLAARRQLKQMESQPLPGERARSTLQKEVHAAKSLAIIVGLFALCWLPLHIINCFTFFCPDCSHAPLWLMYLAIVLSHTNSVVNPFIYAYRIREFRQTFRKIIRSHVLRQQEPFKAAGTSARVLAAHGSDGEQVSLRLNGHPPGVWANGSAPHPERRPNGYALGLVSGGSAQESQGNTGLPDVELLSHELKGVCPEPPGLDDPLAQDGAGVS

Adenosine receptor A2a [6] = molecular target: T3, Adenosine receptor A2a; assay: Binding affinity to NLuc human A2A adenosine receptor expressed in HEK293-A cells assessed as maximal binding capacity in presence of 1 uM ZM241385 by NanoBRET binding assay; format: cell-based; settings: filed as antagonist
Adenosine receptor A2b = molecular target: T4, Adenosine receptor A2b (Homo sapiens, UniProt P29275); assay: Binding affinity to NLuc human A2B adenosine receptor expressed in HEK293-A cells in presence of 1 uM PSB603 by NanoBRET binding assay; format: cell-based
T4 sequence (P29275 whole entry): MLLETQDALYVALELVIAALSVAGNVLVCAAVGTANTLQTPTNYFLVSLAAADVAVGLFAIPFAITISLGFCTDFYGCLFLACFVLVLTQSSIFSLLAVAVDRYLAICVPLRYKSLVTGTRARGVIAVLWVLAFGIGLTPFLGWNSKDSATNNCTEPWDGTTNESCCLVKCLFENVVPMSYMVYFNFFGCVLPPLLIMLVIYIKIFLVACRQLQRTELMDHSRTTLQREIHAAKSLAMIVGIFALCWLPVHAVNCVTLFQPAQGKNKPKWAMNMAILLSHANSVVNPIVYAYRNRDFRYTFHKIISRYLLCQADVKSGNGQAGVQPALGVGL

[7] = molecular target: T5, Adenosine receptor A2b (Homo sapiens) (UniProt P29275); assay: Binding affinity to NLuc human A2B adenosine receptor expressed in HEK293-A cells assessed as maximal binding capacity in presence of 1 uM PSB603 by NanoBRET binding assay; format: cell-based; settings: filed as antagonist
T5 sequence (whole entry): T4 sequence (P29275 whole entry)

Adenosine receptor A3 = molecular target: T6, Adenosine receptor A3 (Homo sapiens, UniProt P0DMS8); assay: Binding affinity to NLuc human A3 adenosine receptor expressed in HEK293-A cells in presence of 1 uM MRS1220 by NanoBRET binding assay; format: cell-based
T6 sequence (P0DMS8 whole entry): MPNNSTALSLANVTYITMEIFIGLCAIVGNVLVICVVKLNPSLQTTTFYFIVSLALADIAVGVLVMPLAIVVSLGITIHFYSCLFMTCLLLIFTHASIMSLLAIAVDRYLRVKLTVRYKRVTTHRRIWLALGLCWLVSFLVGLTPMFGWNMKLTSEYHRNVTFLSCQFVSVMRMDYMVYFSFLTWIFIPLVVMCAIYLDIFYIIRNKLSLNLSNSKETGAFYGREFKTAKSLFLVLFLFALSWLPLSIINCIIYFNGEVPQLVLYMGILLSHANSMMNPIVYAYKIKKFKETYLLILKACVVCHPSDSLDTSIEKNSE

[8] = molecular target: T7, Adenosine receptor A3 (Homo sapiens) (UniProt P0DMS8); assay: Binding affinity to NLuc human A3 adenosine receptor expressed in HEK293-A cells assessed as maximal binding capacity in presence of 1 uM MRS1220 by NanoBRET binding assay; format: cell-based; settings: filed as antagonist
T7 sequence (whole entry): T6 sequence (P0DMS8 whole entry)

[9] = molecular target: T2, Adenosine receptor A1 (Homo sapiens); assay: Antagonist activity at human A1 adenosine receptor expressed in Flp-In-CHO cells assessed as reduction in NECA-mediated inhibition of forskolin stimulated cAMP accumulation by cAMP assay; format: functional, cell-based; settings: filed as antagonist
[10] = molecular target: T2, Adenosine receptor A1 (Homo sapiens); assay: Binding affinity to NanoLuc-human A1 adenosine receptor expressed in HEK293-A cells assessed as binding constant (kon) by NanoBRET competitive binding assay; format: cell-based; settings: filed as antagonist
[11] = molecular target: T2, Adenosine receptor A1 (Homo sapiens); assay: Binding affinity to NanoLuc-human A1 adenosine receptor expressed in HEK293-A cells assessed as binding constant (koff) by NanoBRET competitive binding assay; format: cell-based; settings: filed as antagonist
Adenosine receptor A1 [12] = molecular target: T1, Adenosine receptor A1; assay: Binding affinity to NanoLuc-human A1 adenosine receptor expressed in HEK293-A cells assessed as kinetic dissociation constant by NanoBRET competitive binding assay; format: cell-based
Adenosine receptor A1 [13] = molecular target: T1, Adenosine receptor A1; assay: Binding affinity to NanoLuc human A1 adenosine receptor expressed in HEK293-A cells in prescence of SLV320 by NanoBRET competitive binding assay; format: cell-based
Adenosine receptor A1 [14] = molecular target: T1, Adenosine receptor A1; assay: Binding affinity to NanoLuc human A1 adenosine receptor expressed in HEK293-A cells in prescence of DPCPX by NanoBRET competitive binding assay; format: cell-based
Adenosine receptor A1 [15] = molecular target: T1, Adenosine receptor A1; assay: Binding affinity to NanoLuc human A1 adenosine receptor expressed in HEK293-A cells in prescence of NECA by NanoBRET competitive binding assay; format: cell-based

Compound `CCCn1c(=O)c2[nH]c(C34CCC(C(=O)NCCC(=O)NCCNC(=O)COCCNC(=O)OC(C)(C)C)(CC3)CC4)nc2n(CCC)c1=O` has a Ki (Adenosine receptor A1 [1]) of 0.0112 µM.

In the case of `CCCn1c(=O)c2[nH]c(C34CCC(C(=O)NCCNC(=O)CCCCCNC(=O)COc5ccc(/C=C/C6=[N+]7C(=Cc8ccc(-c9cccs9)n8[B-]7(F)F)C=C6)cc5)(CC3)CC4)nc2n(CCC)c1=O`, the Ki (Adenosine receptor A1 [1]) is reported as 0.0204 µM.

Work on `CCCn1c(=O)c2[nH]c(C34CCC(CCC(=O)NCCNC(=O)COCCOCCNC(=O)OC(C)(C)C)(CC3)CC4)nc2n(CCC)c1=O` yielded a Ki (Adenosine receptor A1 [1]) of 0.0132 µM.

For `CCCn1c(=O)c2[nH]c(C34CC5CC(CC(C5)C3)C4)nc2n(CCCNC(=O)c2ccc(C(=O)NCCNC(=O)CCCCCNC(=O)COc3ccc(/C=C/C4=[N+]5C(=Cc6ccc(-c7cccs7)n6[B-]5(F)F)C=C4)cc3)cc2)c1=O`, the Ki (Adenosine receptor A1 [1]) was 0.00589 µM.

`CCCn1c(=O)c2[nH]c(C34CCC(C(=O)NCCNC(=O)CCCCC[N+]5=C(/C=C/C=C/C=C6/N(C)c7ccc(S(=O)(=O)O)cc7C6(C)C)C(C)(C)c6cc(S(=O)(=O)[O-])ccc65)(CC3)CC4)nc2n(CCC)c1=O` gave a Ki (Adenosine receptor A1 [1]) of 0.851 µM.

Compound `CCCn1c(=O)c2[nH]c(C34CCC(C(=O)NCCCNC(=O)COCCNC(=O)OC(C)(C)C)(CC3)CC4)nc2n(CCC)c1=O` has a Ki (Adenosine receptor A1 [1]) of 0.0162 µM.

Work on `CCCn1c(=O)c2[nH]c(C34CC5CC(CC(C5)C3)C4)nc2n(CCCNC(=O)c2ccc(C(=O)NCCNC(=O)CCNC(=O)CCCCC[N+]3=C(/C=C/C=C/C=C4/N(C)c5ccc(S(=O)(=O)O)cc5C4(C)C)C(C)(C)c4cc(S(=O)(=O)[O-])ccc43)cc2)c1=O` yielded a Ki (Adenosine receptor A1 [1]) of over 10 µM.

For `CCCn1c(=O)c2[nH]c(C34CCC(C(=O)NCCCNC(=O)COCCOCCNC(=O)OC(C)(C)C)(CC3)CC4)nc2n(CCC)c1=O`, the Ki (Adenosine receptor A1 [1]) was 0.0224 µM.

In the case of `CCCn1c(=O)c2[nH]c(C34CC5CC(CC(C5)C3)C4)nc2n(CCCNC(=O)c2ccc(C(=O)NCCNC(=O)CCNC(=O)CCCCCNC(=O)COc3ccc(/C=C/C4=[N+]5C(=Cc6ccc(-c7cccs7)n6[B-]5(F)F)C=C4)cc3)cc2)c1=O`, the Activity [2] is reported as “inactive”, the Ki (Adenosine receptor A1 [1]) is reported as 0.00977 µM and the Kd (Adenosine receptor A1 [3]) is reported as 0.00316 µM. For the same compound, the Bmax [4] was 0.019, the Kd (Adenosine receptor A2a [5]) was 0.0501 µM and the Bmax (Adenosine receptor A2a [6]) was 0.003. The Kd (Adenosine receptor A2b) was 0.055 µM, the Bmax [7] was 0.004 and the Kd (Adenosine receptor A3) was 0.0589 µM. For the same compound, the Bmax [8] was 0.001, the pKb [9] was 8.72 and the K [10] was 3.6 10^6/M/min. The K [11] was 0.046 min⁻¹, the Kd (Adenosine receptor A1 [12]) was 0.0132 µM and the Ki (Adenosine receptor A1 [13]) was 0.00141 µM. It also gave a Ki (Adenosine receptor A1 [14]) of 0.0209 µM and a Ki (Adenosine receptor A1 [15]) of 1.1 µM.

Compound `CCCn1c(=O)c2[nH]c(C34CCC(C(=O)NCCNC(=O)COCCOCCNC(=O)OC(C)(C)C)(CC3)CC4)nc2n(CCC)c1=O` has a Ki (Adenosine receptor A1 [1]) of 0.0174 µM.

`CCCn1c(=O)c2[nH]c(C34CCC(C(=O)NCCNC(=O)COCCNC(=O)OC(C)(C)C)(CC3)CC4)nc2n(CCC)c1=O` gave a Ki (Adenosine receptor A1 [1]) of 0.0138 µM.
